Measurements taken from patent US10966993B2, “Pharmaceutical composition comprising a sulfonylurea drug and preparation method thereof” (JIANGSU AOSAIKANG PHARMACEUTICAL CO., LTD., priority 2016, dated 2021).
≈ marks a conversion by molar mass, not a printed value. Where two headings read alike, the source gives them in different places.

Test: Test on the solubility of glibenclamide in additive/cyclodextrin solutions
Assay type: physicochemical
Settings: for solubility at 1 h: 25 °C, aqueous with cosolvent or surfactant or cyclodextrin, thermodynamic from solid; for Solubility: 25° C.
Description: An excess amount of glibenclamide powder was added into an aqueous solution comprising different proportion of additive (e.g., meglumine, sodium carbonate, sodium hydrogen carbonate or sodium hydroxide) and cyclodextrin (hydroxypropyl-β-cyclodextrin) to form a suspension. The suspension was placed in a constant shaking incubator, and shaken for 1 h at 25±1° C. The shaken suspension was filtered with a 0.45 μm hydrophilic filter membrane, with the primary filtrate being disposed and the subsequent filtrate being collected. The subsequent filtrate was diluted to appropriate times with a PBS buffer having a pH of 7.4, the absorbance of the diluted subsequent filtrate was determined at a wavelength of 225 nm, and the solubility of glibenclamide in the diluted subsequent filtrate was calculated according to the absorbance. Corresponding solubility curves were plotted with the solubility of glibenclamide as the vertical axis and the concentration of cyclodextrin and/or meglumine as the horizontal axis.

Question: Which solubility at 1 h (meglumine 5% (w/v), cyclodextrin from 30% (w/v) to 40% (w/v), read-out: solubility of glibenclamide) does the source give for `COc1ccc(Cl)cc1C(=O)NCCc1ccc(S(=O)(=O)NC(=O)NC2CCCCC2)cc1` [glibenclamide, 5-chloro-N-(4-[N-(cyclohexylcarbamoyl)aminosulfonyl]phenethyl)-2-methoxybenzamide] here?
Answer: The solubility at 1 h was about 49400 µg/mL (≈ 99.9 mM).

Question: What about the solubility at 1 h (meglumine 10% (w/v), cyclodextrin 0% (w/v), read-out: Solubility) of the same compound?
Answer: Its solubility at 1 h is 19000 µg/mL (≈ 38.6 mM).

Question: What about the solubility at 1 h (meglumine only, from 0.1% (w/v) to 10% (w/v), read-out: water solubility of glibenclamide) of the same compound?
Answer: The solubility at 1 h was 960 to 19000 µg/mL (≈ 1.94 to 38.6 mM).

Question: And the solubility at 1 h (sodium carbonate 0.1% (w/v), 2-hydroxypropyl-β-cyclodextrin 10% (w/v), read-out: Solubility)?
Answer: Its solubility at 1 h is 6510 µg/mL (≈ 13.2 mM).

Question: What about the solubility at 1 h (sodium carbonate 0.1% (w/v), 2-hydroxypropyl-β-cyclodextrin 20% (w/v), read-out: Solubility) of the same compound?
Answer: The solubility at 1 h was 10600 µg/mL (≈ 21.5 mM).

Question: What about the solubility at 1 h (sodium carbonate 0.1% (w/v), 2-hydroxypropyl-β-cyclodextrin 30% (w/v), read-out: Solubility) of the same compound?
Answer: The solubility at 1 h was 10800 µg/mL (≈ 21.8 mM).

Question: What about the solubility at 1 h (sodium carbonate 0.1% (w/v), 2-hydroxypropyl-β-cyclodextrin 40% (w/v), read-out: Solubility) of the same compound?
Answer: Its solubility at 1 h is 10900 µg/mL (≈ 22.1 mM).

Question: What about the solubility at 1 h (sodium carbonate 0.1% (w/v), cyclodextrin from 5% (w/v) to 20% (w/v), read-out: water solubility of glibenclamide) of the same compound?
Answer: The solubility at 1 h was 2350 to 10600 µg/mL (≈ 4.76 to 21.5 mM).

Question: And the solubility at 1 h (sodium carbonate 0.1% (w/v), cyclodextrin from 20% (w/v) to 40% (w/v), read-out: solubility of glibenclamide)?
Answer: The solubility at 1 h was about 10600 µg/mL (≈ 21.5 mM).

Question: And the solubility at 1 h (sodium hydrogen carbonate 4% (w/v), 2-hydroxypropyl-β-cyclodextrin 0.5% (w/v), read-out: Solubility)?
Answer: The solubility at 1 h was 320 µg/mL (≈ 0.648 mM).

Question: What about the solubility at 1 h (sodium hydrogen carbonate 4% (w/v), 2-hydroxypropyl-β-cyclodextrin 1.25% (w/v), read-out: Solubility) of the same compound?
Answer: The solubility at 1 h was 590 µg/mL (≈ 1.19 mM).

Question: And the solubility at 1 h (sodium hydrogen carbonate 4% (w/v), 2-hydroxypropyl-β-cyclodextrin 5% (w/v), read-out: Solubility)?
Answer: Its solubility at 1 h is 1260 µg/mL (≈ 2.55 mM).

Question: And the solubility at 1 h (sodium hydrogen carbonate 4% (w/v), 2-hydroxypropyl-β-cyclodextrin 10% (w/v), read-out: Solubility)?
Answer: The solubility at 1 h was 1690 µg/mL (≈ 3.42 mM).

Question: And the solubility at 1 h (sodium hydrogen carbonate 4% (w/v), 2-hydroxypropyl-β-cyclodextrin 20% (w/v), read-out: Solubility)?
Answer: Its solubility at 1 h is 1730 µg/mL (≈ 3.5 mM).

Question: And the solubility at 1 h (sodium hydrogen carbonate 4% (w/v), 2-hydroxypropyl-β-cyclodextrin 30% (w/v), read-out: Solubility)?
Answer: The solubility at 1 h was 1780 µg/mL (≈ 3.6 mM).

Question: What about the solubility at 1 h (sodium hydrogen carbonate 4% (w/v), 2-hydroxypropyl-β-cyclodextrin 40% (w/v), read-out: Solubility) of the same compound?
Answer: The solubility at 1 h was 1750 µg/mL (≈ 3.54 mM).

Question: And the solubility at 1 h (sodium hydrogen carbonate 4% (w/v), cyclodextrin from 0.5% (w/v) to 10% (w/v), read-out: water solubility of glibenclamide)?
Answer: Its solubility at 1 h is 320 to 1690 µg/mL (≈ 0.648 to 3.42 mM).

Question: And the solubility at 1 h (sodium hydrogen carbonate 4% (w/v), cyclodextrin from 10% (w/v) to 40% (w/v), read-out: solubility of glibenclamide)?
Answer: The solubility at 1 h was about 1690 µg/mL (≈ 3.42 mM).

Question: And the solubility at 1 h (sodium hydroxide 0.01% (w/v), 2-hydroxypropyl-β-cyclodextrin 1.25% (w/v), read-out: Solubility)?
Answer: Its solubility at 1 h is 370 µg/mL (≈ 0.749 mM).

Question: And the solubility at 1 h (sodium hydroxide 0.01% (w/v), 2-hydroxypropyl-β-cyclodextrin 2.5% (w/v), read-out: Solubility)?
Answer: Its solubility at 1 h is 640 µg/mL (≈ 1.3 mM).

Question: What about the solubility at 1 h (sodium hydroxide 0.01% (w/v), 2-hydroxypropyl-β-cyclodextrin 5% (w/v), read-out: Solubility) of the same compound?
Answer: The solubility at 1 h was 810 µg/mL (≈ 1.64 mM).

Question: And the solubility at 1 h (sodium hydroxide 0.01% (w/v), 2-hydroxypropyl-β-cyclodextrin 10% (w/v), read-out: Solubility)?
Answer: Its solubility at 1 h is 1260 µg/mL (≈ 2.55 mM).

Question: And the solubility at 1 h (sodium hydroxide 0.01% (w/v), 2-hydroxypropyl-β-cyclodextrin 30% (w/v), read-out: Solubility)?
Answer: Its solubility at 1 h is 1240 µg/mL (≈ 2.51 mM).

Question: And the solubility at 1 h (sodium hydroxide 0.01% (w/v), 2-hydroxypropyl-β-cyclodextrin 40% (w/v), read-out: Solubility)?
Answer: The solubility at 1 h was 1350 µg/mL (≈ 2.73 mM).

Question: And the solubility at 1 h (sodium hydroxide 0.01% (w/v), cyclodextrin from 0.5% (w/v) to 10% (w/v), read-out: water solubility of glibenclamide)?
Answer: Its solubility at 1 h is 140 to 1260 µg/mL (≈ 0.283 to 2.55 mM).

Question: And the solubility at 1 h (sodium hydroxide 0.01% (w/v), cyclodextrin from 10% (w/v) to 40% (w/v), read-out: solubility of glibenclamide)?
Answer: The solubility at 1 h was about 1260 µg/mL (≈ 2.55 mM).

Question: And the Solubility (meglumine 0% (w/v), 2-hydroxypropyl-β-cyclodextrin 30% (w/v))?
Answer: Its Solubility is 0.086 mg/mL (≈ 0.174 mM).

Question: And the Solubility (meglumine 0% (w/v), 2-hydroxypropyl-β-cyclodextrin 40% (w/v))?
Answer: The Solubility was 0.12 mg/mL (≈ 0.243 mM).

Question: What about the Solubility (sodium hydrogen carbonate 4% (w/v), 2-hydroxypropyl-β-cyclodextrin 2.5% (w/v)) of the same compound?
Answer: Its Solubility is 0.84 mg/mL (≈ 1.7 mM).

Question: And the Solubility (sodium hydroxide 0.01% (w/v), 2-hydroxypropyl-β-cyclodextrin 20% (w/v))?
Answer: The Solubility was 1.30 mg/mL (≈ 2.63 mM).
